Reference: ChEMBL document CHEMBL3351493, “Beta-aminoketones as prodrugs for selective irreversible inhibitors of type-1 methionine aminopeptidases” (Bioorg Med Chem Lett, 2014)
Active and inactive are the calls of the source. The calls are words filed in the database; no cut-off is given here.

target: Methionine aminopeptidase (Staphylococcus aureus (strain COL), UniProt Q5HEN6); assay: Inhibition of N-terminal poly-His-tagged Staphylococcus aureus COL MetAP expressed in Escherichia coli BL21(DE3) incubated for 30 mins before MGMM substrate addition by fluorescence assay; set-up: species or system Staphylococcus aureus subsp. aureus COL; settings: not given

IC50	Compound
Not Active	CCC(CN(C)C)C(=O)c1ccccc1.Cl (stereo unspecified)
Not Active	CN(C)CC1CCc2sccc2C1=O.Cl (stereo unspecified)
Not Active	CN(C)CC1(C)Cc2ccccc2C1=O.Cl (stereo unspecified)
Not Active	Cc1cc(C)c2c(c1)C(=O)C(CN(C)C)CC2.Cl (stereo unspecified)
Not Active	COc1cccc(C(=O)CCN(C)C)c1.Cl
Not Active	COc1ccc(C(=O)CCN(C)C)cc1.Cl

Compound	IC50
CN(C)CCC(=O)c1ccccc1.Cl	Not Active

same assay, conditions: read-out: IC50

IC50 [µM]	Compound
18.9	COc1cc2c(cc1OC)C(=O)C(CN(C)C)C2.Cl (stereo unspecified)

target: Methionine aminopeptidase 2 (Homo sapiens, UniProt P50579); settings: sf9
Sequence (P50579 whole entry): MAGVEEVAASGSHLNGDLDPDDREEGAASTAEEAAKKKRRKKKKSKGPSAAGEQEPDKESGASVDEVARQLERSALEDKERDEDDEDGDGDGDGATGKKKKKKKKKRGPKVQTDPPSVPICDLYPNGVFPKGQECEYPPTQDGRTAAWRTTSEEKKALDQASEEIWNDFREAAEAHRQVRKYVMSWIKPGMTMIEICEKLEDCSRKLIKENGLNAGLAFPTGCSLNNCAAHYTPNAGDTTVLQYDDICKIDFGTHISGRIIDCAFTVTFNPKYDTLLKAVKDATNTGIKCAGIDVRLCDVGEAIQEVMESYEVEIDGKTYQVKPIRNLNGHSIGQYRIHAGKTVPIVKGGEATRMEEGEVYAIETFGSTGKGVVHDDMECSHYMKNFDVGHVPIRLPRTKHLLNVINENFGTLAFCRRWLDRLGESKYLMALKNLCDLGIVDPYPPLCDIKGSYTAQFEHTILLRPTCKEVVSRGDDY
Description: Inhibition of human MetAP-2 expressed in Sf9 cells incubated for 60 mins before MGMM substrate addition by fluorescence assay

IC50	Compound
Not Active	CCC(CN(C)C)C(=O)c1ccccc1.Cl (stereo unspecified)
Not Active	CN(C)CC1CCc2sccc2C1=O.Cl (stereo unspecified)
Not Active	CN(C)CC1(C)Cc2ccccc2C1=O.Cl (stereo unspecified)
Not Active	Cc1cc(C)c2c(c1)C(=O)C(CN(C)C)CC2.Cl (stereo unspecified)
Not Active	COc1cccc(C(=O)CCN(C)C)c1.Cl
Not Active	COc1cc2c(cc1OC)C(=O)C(CN(C)C)C2.Cl (stereo unspecified)
Not Active	COc1ccc(C(=O)CCN(C)C)cc1.Cl

Compound	IC50
CN(C)CCC(=O)c1ccccc1.Cl	Not Active

tested on: Ca-Ski; assay: Cytotoxicity against human CaSki cells at 1.6 to 100 ug/ml after 72 hrs by crystal violet assay; format: functional, cell-based; settings: not given

Compound	Activity
CCC(CN(C)C)C(=O)c1ccccc1.Cl (stereo unspecified)	Active
CN(C)CC1CCc2sccc2C1=O.Cl (stereo unspecified)	Active
CN(C)CC1(C)Cc2ccccc2C1=O.Cl (stereo unspecified)	inactive
Cc1cc(C)c2c(c1)C(=O)C(CN(C)C)CC2.Cl (stereo unspecified)	Active
COc1cccc(C(=O)CCN(C)C)c1.Cl	Active
CN(C)CCC(=O)c1ccccc1.Cl	Active
COc1cc2c(cc1OC)C(=O)C(CN(C)C)C2.Cl (stereo unspecified)	Active
COc1ccc(C(=O)CCN(C)C)cc1.Cl	Active

tested on: HaCaT; assay: Cytotoxicity against human HaCaT cells at 1.6 to 100 ug/ml after 72 hrs by crystal violet assay; format: cell-based; settings: not given

Compound	Activity
CCC(CN(C)C)C(=O)c1ccccc1.Cl (stereo unspecified)	Toxic
CN(C)CC1CCc2sccc2C1=O.Cl (stereo unspecified)	Toxic
CN(C)CC1(C)Cc2ccccc2C1=O.Cl (stereo unspecified)	Non-toxic
Cc1cc(C)c2c(c1)C(=O)C(CN(C)C)CC2.Cl (stereo unspecified)	Toxic
COc1cccc(C(=O)CCN(C)C)c1.Cl	Toxic
CN(C)CCC(=O)c1ccccc1.Cl	Toxic
COc1cc2c(cc1OC)C(=O)C(CN(C)C)C2.Cl (stereo unspecified)	Toxic
COc1ccc(C(=O)CCN(C)C)cc1.Cl	Toxic

tested on: Calu-6; assay: Cytotoxicity against human Calu6 cells at 1.6 to 100 ug/ml after 72 hrs by crystal violet assay; format: functional, cell-based; settings: not given

Compound	Activity
CCC(CN(C)C)C(=O)c1ccccc1.Cl (stereo unspecified)	Active
CN(C)CC1CCc2sccc2C1=O.Cl (stereo unspecified)	Active
CN(C)CC1(C)Cc2ccccc2C1=O.Cl (stereo unspecified)	inactive
Cc1cc(C)c2c(c1)C(=O)C(CN(C)C)CC2.Cl (stereo unspecified)	Active
COc1cccc(C(=O)CCN(C)C)c1.Cl	Active
CN(C)CCC(=O)c1ccccc1.Cl	Active
COc1cc2c(cc1OC)C(=O)C(CN(C)C)C2.Cl (stereo unspecified)	Active
COc1ccc(C(=O)CCN(C)C)cc1.Cl	Active

tested on: not listed separately; assay: Cytotoxicity against human Flow 2002 cells at 1.6 to 100 ug/ml after 72 hrs by crystal violet assay; format: cell-based; settings: flow 2002, 72 h

Compound	Activity
CCC(CN(C)C)C(=O)c1ccccc1.Cl (stereo unspecified)	Toxic
CN(C)CC1CCc2sccc2C1=O.Cl (stereo unspecified)	Toxic
CN(C)CC1(C)Cc2ccccc2C1=O.Cl (stereo unspecified)	Non-toxic
Cc1cc(C)c2c(c1)C(=O)C(CN(C)C)CC2.Cl (stereo unspecified)	Toxic
COc1cccc(C(=O)CCN(C)C)c1.Cl	Toxic
CN(C)CCC(=O)c1ccccc1.Cl	Toxic
COc1cc2c(cc1OC)C(=O)C(CN(C)C)C2.Cl (stereo unspecified)	Toxic
COc1ccc(C(=O)CCN(C)C)cc1.Cl	Toxic

tested on: BT-474; assay: Cytotoxicity against human BT474 cells at 1.6 to 100 ug/ml after 72 hrs by crystal violet assay; format: functional, cell-based; settings: not given

Compound	Activity
CCC(CN(C)C)C(=O)c1ccccc1.Cl (stereo unspecified)	Active
CN(C)CC1CCc2sccc2C1=O.Cl (stereo unspecified)	Active
CN(C)CC1(C)Cc2ccccc2C1=O.Cl (stereo unspecified)	inactive
Cc1cc(C)c2c(c1)C(=O)C(CN(C)C)CC2.Cl (stereo unspecified)	Active
COc1cccc(C(=O)CCN(C)C)c1.Cl	Active
CN(C)CCC(=O)c1ccccc1.Cl	Active
COc1cc2c(cc1OC)C(=O)C(CN(C)C)C2.Cl (stereo unspecified)	Active
COc1ccc(C(=O)CCN(C)C)cc1.Cl	Active

tested on: not listed separately; assay: Half life assessed as decomposition into amines and unsaturated ketones at 250 uM in 50 mM Tris/maleate pH 7.5 buffer by HPLC method; format: physicochemical; settings: Tris/maleate buffer, pH 7.5

half-life at 250 µM [h]	Compound
116	CN(C)CC1CCc2sccc2C1=O.Cl (stereo unspecified)
14.4	Cc1cc(C)c2c(c1)C(=O)C(CN(C)C)CC2.Cl (stereo unspecified)
0.933	COc1cc2c(cc1OC)C(=O)C(CN(C)C)C2.Cl (stereo unspecified)

same assay, conditions: buffer, pH 7.5, 250 µM

t1/2	Compound
Stable	CCC(CN(C)C)C(=O)c1ccccc1.Cl (stereo unspecified)
Stable	CN(C)CC1(C)Cc2ccccc2C1=O.Cl (stereo unspecified)
Stable	COc1cccc(C(=O)CCN(C)C)c1.Cl

target: T1, Methionine aminopeptidase (Escherichia coli K-12, UniProt P0AE18); assay: Inhibition of C-terminal poly-His-tagged Escherichia coli MetAP expressed in Escherichia coli BL21(DE3) incubated for 30 mins before MGMM substrate addition by fluorescence assay; settings: not given
T1 sequence (P0AE18 whole entry): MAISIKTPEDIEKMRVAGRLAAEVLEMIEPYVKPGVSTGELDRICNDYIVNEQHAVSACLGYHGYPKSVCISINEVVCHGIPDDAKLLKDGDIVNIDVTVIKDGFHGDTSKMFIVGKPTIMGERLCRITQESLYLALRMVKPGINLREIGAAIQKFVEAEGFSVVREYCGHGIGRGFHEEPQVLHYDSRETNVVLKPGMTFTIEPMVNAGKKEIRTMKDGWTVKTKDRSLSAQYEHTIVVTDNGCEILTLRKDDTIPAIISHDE

IC50	Compound
Not Active	CCC(CN(C)C)C(=O)c1ccccc1.Cl (stereo unspecified)
Not Active	CN(C)CC1(C)Cc2ccccc2C1=O.Cl (stereo unspecified)
Not Active	COc1cccc(C(=O)CCN(C)C)c1.Cl
Not Active	COc1ccc(C(=O)CCN(C)C)cc1.Cl

Compound	IC50
CN(C)CCC(=O)c1ccccc1.Cl	Not Active

same assay, conditions: read-out: IC50

IC50 [µM]	Compound
60.8	CN(C)CC1CCc2sccc2C1=O.Cl (stereo unspecified)
45.5	Cc1cc(C)c2c(c1)C(=O)C(CN(C)C)CC2.Cl (stereo unspecified)
1.7	COc1cc2c(cc1OC)C(=O)C(CN(C)C)C2.Cl (stereo unspecified)

tested on: A 172; assay: Cytotoxicity against human A172 cells at 1.6 to 100 ug/ml after 72 hrs by crystal violet assay; format: functional, cell-based; settings: not given

Compound	Activity
CCC(CN(C)C)C(=O)c1ccccc1.Cl (stereo unspecified)	Active
CN(C)CC1CCc2sccc2C1=O.Cl (stereo unspecified)	Active
CN(C)CC1(C)Cc2ccccc2C1=O.Cl (stereo unspecified)	inactive
Cc1cc(C)c2c(c1)C(=O)C(CN(C)C)CC2.Cl (stereo unspecified)	Active
COc1cccc(C(=O)CCN(C)C)c1.Cl	Active
CN(C)CCC(=O)c1ccccc1.Cl	Active
COc1cc2c(cc1OC)C(=O)C(CN(C)C)C2.Cl (stereo unspecified)	Active
COc1ccc(C(=O)CCN(C)C)cc1.Cl	Active

tested on: SW707; assay: Cytotoxicity against human SW707 cells at 1.6 to 100 ug/ml after 72 hrs by crystal violet assay; format: functional, cell-based; settings: not given

Compound	Activity
CCC(CN(C)C)C(=O)c1ccccc1.Cl (stereo unspecified)	Active
CN(C)CC1CCc2sccc2C1=O.Cl (stereo unspecified)	Active
CN(C)CC1(C)Cc2ccccc2C1=O.Cl (stereo unspecified)	inactive
Cc1cc(C)c2c(c1)C(=O)C(CN(C)C)CC2.Cl (stereo unspecified)	Active
COc1cccc(C(=O)CCN(C)C)c1.Cl	Active
CN(C)CCC(=O)c1ccccc1.Cl	Active
COc1cc2c(cc1OC)C(=O)C(CN(C)C)C2.Cl (stereo unspecified)	Active
COc1ccc(C(=O)CCN(C)C)cc1.Cl	Active

tested on: Escherichia coli; assay: Antimicrobial activity against Escherichia coli BL21(DE3) assessed as inhibition of bacterial growth at 200 uM incubated at 37 degC for 7 hrs; format: functional; settings: not given

Compound	inhibition
CCC(CN(C)C)C(=O)c1ccccc1.Cl (stereo unspecified)	inactive
CN(C)CC1(C)Cc2ccccc2C1=O.Cl (stereo unspecified)	inactive
COc1cccc(C(=O)CCN(C)C)c1.Cl	inactive
CN(C)CCC(=O)c1ccccc1.Cl	inactive
COc1ccc(C(=O)CCN(C)C)cc1.Cl	inactive

same assay, conditions: BL21-DE3, 7 h

Compound	inhibition at 200 µM [%]
CN(C)CC1CCc2sccc2C1=O.Cl (stereo unspecified)	10
Cc1cc(C)c2c(c1)C(=O)C(CN(C)C)CC2.Cl (stereo unspecified)	56
COc1cc2c(cc1OC)C(=O)C(CN(C)C)C2.Cl (stereo unspecified)	17

tested on: MeWo; assay: Cytotoxicity against human MeWo cells at 1.6 to 100 ug/ml after 72 hrs by crystal violet assay; format: functional, cell-based; settings: not given

Compound	Activity
CCC(CN(C)C)C(=O)c1ccccc1.Cl (stereo unspecified)	Active
CN(C)CC1CCc2sccc2C1=O.Cl (stereo unspecified)	Active
CN(C)CC1(C)Cc2ccccc2C1=O.Cl (stereo unspecified)	inactive
Cc1cc(C)c2c(c1)C(=O)C(CN(C)C)CC2.Cl (stereo unspecified)	Active
COc1cccc(C(=O)CCN(C)C)c1.Cl	Active
CN(C)CCC(=O)c1ccccc1.Cl	Active
COc1cc2c(cc1OC)C(=O)C(CN(C)C)C2.Cl (stereo unspecified)	Active
COc1ccc(C(=O)CCN(C)C)cc1.Cl	Active

tested on: A-431; assay: Cytotoxicity against human A431 cells at 1.6 to 100 ug/ml after 72 hrs by crystal violet assay; format: functional, cell-based; settings: not given

Compound	Activity
CCC(CN(C)C)C(=O)c1ccccc1.Cl (stereo unspecified)	Active
CN(C)CC1CCc2sccc2C1=O.Cl (stereo unspecified)	Active
CN(C)CC1(C)Cc2ccccc2C1=O.Cl (stereo unspecified)	inactive
Cc1cc(C)c2c(c1)C(=O)C(CN(C)C)CC2.Cl (stereo unspecified)	Active
COc1cccc(C(=O)CCN(C)C)c1.Cl	Active
CN(C)CCC(=O)c1ccccc1.Cl	Active
COc1cc2c(cc1OC)C(=O)C(CN(C)C)C2.Cl (stereo unspecified)	Active
COc1ccc(C(=O)CCN(C)C)cc1.Cl	Active

target: Methionine aminopeptidase 1 (Homo sapiens, UniProt P53582); assay: Inhibition of N-terminal poly-His-tagged human MetAP-1 expressed in Escherichia coli BL21(DE3) incubated for 30 mins before MGMM substrate addition by fluorescence assay; settings: not given

IC50	Compound
Not Active	CCC(CN(C)C)C(=O)c1ccccc1.Cl (stereo unspecified)
Not Active	CN(C)CC1CCc2sccc2C1=O.Cl (stereo unspecified)
Not Active	CN(C)CC1(C)Cc2ccccc2C1=O.Cl (stereo unspecified)
Not Active	Cc1cc(C)c2c(c1)C(=O)C(CN(C)C)CC2.Cl (stereo unspecified)
Not Active	COc1cccc(C(=O)CCN(C)C)c1.Cl
Not Active	COc1cc2c(cc1OC)C(=O)C(CN(C)C)C2.Cl (stereo unspecified)
Not Active	COc1ccc(C(=O)CCN(C)C)cc1.Cl

Compound	IC50
CN(C)CCC(=O)c1ccccc1.Cl	Not Active

tested on: CAPAN-1; assay: Cytotoxicity against human Capan1 cells at 1.6 to 100 ug/ml after 72 hrs by crystal violet assay; format: functional, cell-based; settings: not given

Compound	Activity
CCC(CN(C)C)C(=O)c1ccccc1.Cl (stereo unspecified)	Active
CN(C)CC1CCc2sccc2C1=O.Cl (stereo unspecified)	Active
CN(C)CC1(C)Cc2ccccc2C1=O.Cl (stereo unspecified)	inactive
Cc1cc(C)c2c(c1)C(=O)C(CN(C)C)CC2.Cl (stereo unspecified)	Active
COc1cccc(C(=O)CCN(C)C)c1.Cl	Active
CN(C)CCC(=O)c1ccccc1.Cl	Active
COc1cc2c(cc1OC)C(=O)C(CN(C)C)C2.Cl (stereo unspecified)	Active
COc1ccc(C(=O)CCN(C)C)cc1.Cl	Active
